According to a compilation of properties of binary mixtures (doi:10.1016/j.molliq.2022.119417):

Test: xn = mol fraction of the nth substance listed
Details: 100 kPa

CC[n+]1ccn(C)c1.O=S(=O)([O-])O + OCCO
viscosity [mPa·s]
Details | x1 = 0.125 | x1 = 0.143 | x1 = 0.167 | x1 = 0.2 | x1 = 0.25 | x1 = 0.33 | x1 = 0.5
298.15 K | 19 | 21 | 24 | 28 | 35 | 52 | 95
303.15 K | – | 17 | 20 | 23 | 29 | 43 | –
308.15 K | 13 | 15 | 17 | 19 | – | 35 | 62
313.15 K | 11 | – | 14 | 16 | 20 | – | 50
318.15 K | 9 | 11 | – | 14 | 18 | 25 | 42
323.15 K | 8 | 9 | 10 | 12 | 15 | – | 35
